Laboratory results: ChEMBL document CHEMBL3244223, “Drug-induced modifications of the immune response. 1. Substituted 1-phenylisoquinolines” (1979)
“And” between values parts separate entries of the source, which are not always exact repeats. Equal values may be shown once. The source made the active and inactive calls. The calls are words filed in the database; no cut-off is given here.

How the values were obtained:
Rattus norvegicus [1] = assay: Antiallergic activity in Sprague-Dawley rat assessed as inhibition of ovalbumin-induced wheal formation at 25 mg/kg, ip administered 5 mins prior to ovalbumin challenge measured after 30 mins by passive cutaneous anaphylaxis assay relative to control; type: functional; conditions: route intraperitoneal; for inhibition in vivo at 25 mg/kg: Rattus norvegicus, Sprague-Dawley, ip
[2] = Antiallergic activity in antiovalbumin serum sensitized guinea pig lung slices assessed as inhibition of ovalbumin-induced histamine release at 100 uM preincubated for 5 mins followed by ovalbumin challenge measured after 15 mins by fluorometric analysis relative to control; type: functional, Cavia porcellus; conditions: for inhibition at 100 µM: Cavia porcellus, Lung
Canis lupus familiaris = organism: Canis lupus familiaris; assay: Inhibition of Mongrel dog ventricular muscle cAMP phosphodiesterase using adenosine 3',5' monophosphate as substrate at 100 uM by scintillation counting analysis in presence of [8-14C]adenosine relative to control
Rattus norvegicus [3] = assay: Antiallergic activity in Sprague-Dawley rat assessed as inhibition of ovalbumin-induced wheal formation at 25 mg/kg, po administered 10 mins prior to ovalbumin challenge measured after 30 mins by passive cutaneous anaphylaxis assay relative to control; type: functional
Rattus norvegicus [4] = assay: Antiallergic activity in ip dosed Sprague-Dawley rat assessed as inhibition of ovalbumin-induced wheal formation administered 5 mins prior to ovalbumin challenge measured after 30 mins by passive cutaneous anaphylaxis assay; type: functional
Rattus norvegicus [5] = assay: Antiallergic activity in Sprague-Dawley rat assessed as inhibition of serotonin-induced wheal formation at 25 mg/kg, ip administered 5 mins prior to serotonin challenge measured 5 mins post serotonin challenge relative to control; type: functional
Rattus norvegicus [6] = assay: Antiallergic activity in Sprague-Dawley rat assessed as inhibition of ovalbumin-induced wheal formation at 6 mg/kg, ip administered 5 mins prior to ovalbumin challenge measured after 30 mins by passive cutaneous anaphylaxis assay relative to control; type: functional; conditions: route intraperitoneal
[7] = Antiallergic activity in antiovalbumin serum sensitized guinea pig lung slices assessed as inhibition of ovalbumin-induced histamine release at 0.3 uM preincubated for 5 mins followed by ovalbumin challenge measured after 15 mins by fluorometric analysis relative to control; type: functional; conditions: Cavia porcellus
[8] = Antiallergic activity in antiovalbumin serum sensitized guinea pig lung slices assessed as inhibition of ovalbumin-induced histamine release at 1.5 mM preincubated for 5 mins followed by ovalbumin challenge measured after 15 mins by fluorometric analysis relative to control; type: functional; conditions: Cavia porcellus

inhibition (Canis lupus familiaris) | Structure (SMILES) | inhibition in vivo at 25 mg/kg (Rattus norvegicus [1]) [%] | inhibition at 100 µM [2] [%] | other results
4% | Cc1ccc2c(c1)C(c1ccccc1)NCC2 (stereo unspecified) | 51 | 0 | inhibition in vivo at 25 mg/kg (Rattus norvegicus [3]): 17%
83% | COc1cc2c(cc1O)C(c1ccccc1)=NCC2 | 46 | 36 | 
71% | COc1cc2c(cc1OC)C(c1ccc(C(C)(C)C)cc1)NCC2.Cl (stereo unspecified) | 37 | 13 | inhibition in vivo at 25 mg/kg (Rattus norvegicus [3]): 9%; ED50 (Rattus norvegicus [4]): 24 mg/kg; inhibition (Rattus norvegicus [5]): inactive
46% | COc1cc2c(cc1OC)C(c1ccccc1)NCC2.Cl (stereo unspecified) | 52 | 49 | inhibition in vivo at 25 mg/kg (Rattus norvegicus [3]): 7%; ED50 (Rattus norvegicus [4]): 34 mg/kg; inhibition (Rattus norvegicus [5]): inactive
34% | COc1cc2c(cc1OCc1ccccc1)C(c1ccccc1)NCC2 (racemic) | 29 | 56 | inhibition in vivo at 25 mg/kg (Rattus norvegicus [5]; route intraperitoneal): 29%
84% | COc1cc2c(cc1OC)C(c1cccc(C(F)(F)F)c1)NCC2 (stereo unspecified) | 29 | 55 | 
12% | COc1ccc2c(c1)C(c1ccccc1)NCC2.Cl (stereo unspecified) | 41 | 60 | inhibition in vivo at 25 mg/kg (Rattus norvegicus [3]): 40%; ED50 (Rattus norvegicus [4]): 24 mg/kg; inhibition (Rattus norvegicus [5]): inactive
34% | COc1cc2c(cc1OC)C(c1ccccc1OC)NCC2 (stereo unspecified) | 24 | 46 | 
7% | c1ccc(C2NCCc3ccccc32)cc1 (stereo unspecified) | 17 | 46 | 
97% and 91% | COc1cc2c(cc1OC)C(c1ccccc1)=NCC2 [listing 2 of 2 here] |  |  | 
19% | COc1cc2c(cc1O)C(c1ccccc1)NCC2 (stereo unspecified) | 43 | 25 | inhibition in vivo at 25 mg/kg (Rattus norvegicus [3]): 6%

Second part, the compound before the results:

Structure (SMILES) | inhibition (Canis lupus familiaris) | inhibition in vivo at 25 mg/kg (Rattus norvegicus [1]) [%] | inhibition at 100 µM [2] [%] | other results
Cc1ccc2c(c1)C(c1ccccc1)=NCC2 | 53% | 23 | 6 | 
COc1cc2c(cc1OC)C(Cc1cc(OC)c(OCc3ccccc3)cc1Br)NCC2 (racemic) | 45% | 0 | 27 | 
COc1cc2c(cc1OC)C(c1nccc3cc(OC)c(OC)cc13)OC2=O (stereo unspecified) | 33% | 16 |  | 
COc1cc2c(cc1OC)C(c1ccccc1OC)=NCC2 | 56% | 36 |  | 
COc1cc2c(cc1OC)C(C1CCCCC1)NCC2 (stereo unspecified) | 19% | 49 | 66 | inhibition in vivo at 25 mg/kg (Rattus norvegicus [3]): 8%
c1ccc(C2=NCCc3ccccc32)cc1 | 42% | 0 | 17 | 
O=C(O)c1cc(=O)c2c(OCC(O)COc3cccc4oc(C(=O)O)cc(=O)c34)cccc2o1 [CROMOLYN SODIUM] |  |  |  | inhibition in vivo at 6 mg/kg (Rattus norvegicus [6]): 52%
COc1cc2c(cc1OC)C(Cc1cc(OCc3ccccc3)c(OC)cc1Br)NCC2 (racemic) | 55% | 0 | 33 | 
COc1cc2c(cc1OC)C(c1cccc(C(F)(F)F)c1)=NCC2 | 95% | 35 | 16 | 
CCOC(=O)C(=O)N1CCc2cc(OC)c(OCc3ccccc3)cc2C1c1ccccc1 (stereo unspecified) | 0% | 18 | 0 | 
COc1cc2c(cc1OCc1ccccc1)C(c1ccccc1)=NCC2 | 95% | 36 | 18 | 
Cn1c(=O)c2[nH]cnc2n(C)c1=O | 51% |  |  | 
COc1cc2c(cc1OC)C(c1ccccc1)=NCC2 [listing 1 of 2 here] |  |  |  | inhibition (INH) (Rattus norvegicus [1]): 31%; inhibition (INH) [2]: 91%
COc1cc2c(cc1OC)C(C1CCCCC1)=NCC2 | 70% | 18 |  | 
CC(C)NCC(O)c1ccc(O)c(O)c1 (stereo unspecified) [ISOPROTERENOL] |  |  |  | inhibition at 0.3 µM [7]: 49%
Cn1c(=O)c2nc[nH]c2n(C)c1=O [THEOPHYLLINE] |  |  |  | inhibition at 1500 µM [8]: 50%
Clc1ccc2c(c1)C(c1ccccc1)=NCC2 | 44% | 34 | 0 | 
c1ccc2c(c1)CCNC2 | 0% | 18 | 31 | 
COc1cc2c(cc1OC)C1C(=O)Cc3ccccc3CN1CC2 (stereo unspecified) | 64% | 18 | 43 | 
CI.COc1cc2c(cc1OC)C(c1ccccc1)=NCC2 |  | 22 |  | inhibition (INH) [2]: 63%
